Tests used:
[1] = biological target: T1, hyperactive mutant BKCa channels (hSlo G803D/N806K) stably expressed in AD 293 cells (Homo sapiens, UniProt Q12791, G856D/N859K); test: Cell-based fluorescence assay (FluxOR Potassium Ion Channel Assay) of BKCa channel activation; settings: fit of dose-response curve of initial rates; read-out: Apparent EC50 based on vi
T1 construct: expressed in transfected cells
Description: AD 293 cells, which are derivatives of the commonly used HEK 293 cell line and stably express hyperactive mutant BKCa channels (hSlo G803D/N806K) to sensitively detect the effect (Lee et al., 2013), were cultured in Dulbecco' modified Eagle medium (Hyclone, Logan, Utah, […]) supplemented with 10% fetal bovine serum, and selected with 1 mg/mL Geneticin (Gibco, Amarillo, TX, USA). 20,000 cells per well were seeded on a 96-well clear-bottom black plate (Corning, New York, NY, USA) coated with poly-D-lysine (Gibco). BKCa channel activity was measured using the cell-based fluorescence assay, FluxOR Potassium Ion Channel Assay (Thermo Fisher Scientific, Waltham, MA, USA). Experimental procedures were performed according to the manufacturer's instructions. The cells were treated with test compounds dissolved in assay buffer for 15 minutes. Fluorescence was measured using a FlexStation3 multimode microplate reader (Molecular Devices, Silicon Valley, CA, USA) and SoftMax Pro (Molecular Devices). Excitation and emission wavelengths were set to 485 nm and 528 nm, respectively. Fluorescence signals were acquired every 2 seconds for 120 seconds and normalized by the relative fluorescence unit (RFU). The efficacy of a channel activator was determined by analyzing changes (ΔRFU) in the RFU for 80 seconds after channel stimulation.
Activation effects of the synthesized compounds on BKCa channels were evaluated using cell-based fluorescence assay. NS11021 was used as the positive control. The effects were determined based on the initial rate (vi) of channel activation and the apparent EC50 value obtained from fitting data of the dose-response curve. Here, Vi means change values for 4 seconds at the start of channel opening (vi={RFU(t=24 s)−RFU(t=20 s)}/4 s). […]

[2] = system: Spontaneously hypertensive rats (SHR); test: In vivo model of OAB: urination in spontaneously hypertensive rats after oral administration; set-up: species or system rat
Description: Male rats with body weights of 300 to 350 g were deprived of food and water overnight before the experiment, and then were randomly divided into a drug administration group and a control group. All animals were provided free access to water for 2 hours, and then 10 mL/kg of vehicle solution [DMSO:PEG400:distilled water=5:40:55 (v/v)] as a test substance were orally administered. After oral administration of the test substance, the rats were placed in a metabolic cage and the number of urinations and urine volume were measured for 3 hours.
The in vivo treatment effects of the compounds for […] were investigated in spontaneously hypertensive rats (SHR) with OAB symptoms after oral administration. Wistar-Kyoto rats (WKY) were used as the healthy animal control, and urination frequency was increased more than 2.8 times in SHR compared to WKY. Compound 208 reduced the urination frequency in SHR (50 mg/kg) by 33%, which is quite close to the urination frequency of the normal group (see FIG. 18).

T1 sequence (Q12791 whole entry G856D/N859K): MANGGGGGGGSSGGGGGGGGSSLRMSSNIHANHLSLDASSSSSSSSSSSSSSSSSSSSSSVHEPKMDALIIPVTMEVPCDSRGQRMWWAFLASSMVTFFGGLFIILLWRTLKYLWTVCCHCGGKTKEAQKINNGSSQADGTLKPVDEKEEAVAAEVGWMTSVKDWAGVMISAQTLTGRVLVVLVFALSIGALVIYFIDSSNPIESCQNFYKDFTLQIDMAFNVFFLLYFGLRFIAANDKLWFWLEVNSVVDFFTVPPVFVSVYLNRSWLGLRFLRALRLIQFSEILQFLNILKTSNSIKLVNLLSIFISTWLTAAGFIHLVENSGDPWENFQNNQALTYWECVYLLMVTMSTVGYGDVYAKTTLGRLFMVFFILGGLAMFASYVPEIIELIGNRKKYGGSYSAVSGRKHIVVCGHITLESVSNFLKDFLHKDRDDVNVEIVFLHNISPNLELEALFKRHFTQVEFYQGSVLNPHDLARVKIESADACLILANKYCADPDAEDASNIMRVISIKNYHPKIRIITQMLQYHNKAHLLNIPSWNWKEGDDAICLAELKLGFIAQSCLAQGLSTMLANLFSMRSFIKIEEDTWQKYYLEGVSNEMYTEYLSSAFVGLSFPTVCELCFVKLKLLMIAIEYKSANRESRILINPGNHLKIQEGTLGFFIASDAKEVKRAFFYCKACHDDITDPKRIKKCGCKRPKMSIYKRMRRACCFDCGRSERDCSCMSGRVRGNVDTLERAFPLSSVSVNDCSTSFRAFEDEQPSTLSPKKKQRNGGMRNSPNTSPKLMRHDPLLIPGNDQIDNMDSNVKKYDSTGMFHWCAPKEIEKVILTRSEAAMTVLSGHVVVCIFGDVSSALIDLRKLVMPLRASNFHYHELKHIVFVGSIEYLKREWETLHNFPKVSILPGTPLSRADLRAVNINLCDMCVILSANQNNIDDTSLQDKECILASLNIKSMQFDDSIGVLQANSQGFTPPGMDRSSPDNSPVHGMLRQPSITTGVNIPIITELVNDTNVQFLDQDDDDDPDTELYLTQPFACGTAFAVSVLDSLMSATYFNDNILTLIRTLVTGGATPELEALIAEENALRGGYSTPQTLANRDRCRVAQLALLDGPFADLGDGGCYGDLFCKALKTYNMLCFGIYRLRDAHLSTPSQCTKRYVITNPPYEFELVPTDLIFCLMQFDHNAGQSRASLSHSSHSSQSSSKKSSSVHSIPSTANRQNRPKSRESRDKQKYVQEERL

Row | EC50 [1] [nM] | Structure (SMILES) | reduction of urination frequency ([2]; 50 mg/kg oral) [%] | number of urinations ([2]; 5 mg/kg oral, 3 hours, SHR vehicle 8.2)
1 | 2890 | O=C(Nc1cccc(C(F)(F)F)c1)c1sc(=S)n2c1[nH]c(=O)c1cc(Br)ccc12 [Compound 208, 7-bromo-5-oxo-1-thioxo-N-(3-(trifluoromethyl)phenyl)-4,5-dihydro-1H-thiazolo[3,4-a]quinazoline-3-carboxamide] | 33 | –
2 | – | O=C(O[C@H]1CN2CCC1CC2)N1CCc2ccccc2[C@@H]1c1ccccc1 [solifenacin succinate, reference compound] | – | 4.2
